# In article PMC10041537, “Molecular origins of mutational spectra produced by the environmental carcinogen N-nitrosodimethylamine and SN1 chemotherapeutic agents” (NAR Cancer, 2023):
# Where “and” joins values, the source holds several entries; their conditions need not be identical. Equal values may be shown once.
# Columns and labels:
# human = system: human; parameters: method as in PMID 21141240; settings: cited from earlier work
# gpt reporter gene [1] = type: in vivo, RaDR^R/R;gpt^g/g;Mgmt^−/− mice; settings: liver, NDMA-treated Mgmt−/− vs NDMA-treated WT
# Procedure: (§1) Most experiments utilized C57BL/6J gptΔ transgenic mice ([49],[50]), a gift from T. Nohmi. Some experiments used RaDR^R/R;gpt^g/g;Mgmt^−/− mice, which were created by crossing RaDR^R/R;gpt^g/gmice ([37]) with Mgmt^−/− mice ([51]). NDMA was synthesized and characterized as previously described ([52]) (Fig. S1). […] The first dose (3.5 mg/kg in 10 μl) was administered at 8 days of age, and the second dose (7 mg/kg in 20 μl) was administered at 15 days of age. Vehicle treated mice were administered equivalent volumes of saline. Mice were euthanized at ten weeks post-injection by CO2 inhalation. Both male and female mice were used in all experimental groups (n = 5) in all mouse experiments.
# The gptΔ assay is the technology traditionally used with the gptΔ mouse to probe for small mutations in the 459 bp gpt transgene, of which approximately 160 copies exist in the mouse diploid genome ([50]). […]
# The λ-EG10 phage was packaged in vitro from genomic DNA using a Transpack packaging extract (Agilent Technologies) and then transfected into E. coli YG6020 expressing Cre-recombinase, generating a 6.4 kb plasmid carrying the gpt and chloramphenicol acetyltransferase genes. […] The mutant frequency of each group was calculated (ratio of total 6-TG-resistant colonies to the average of chloramphenicol resistant colonies). The samples were processed and analyzed in a blinded fashion. […]
# gpt reporter gene [2] = type: in vivo, C57BL/6J gptΔ transgenic mice
# Procedure: as §1
# The gptΔ assay is the technology traditionally used with the gptΔ mouse to probe for small mutations in the 459 bp gpt transgene, of which approximately 160 copies exist in the mouse diploid genome ([50]). The gpt gene, which is not expressed in the mammalian cells, is contained in a λ-EG10 viral cassette that can be recovered ex vivo through a lambda packaging reaction.
# The λ-EG10 phage was packaged in vitro from genomic DNA using a Transpack packaging extract (Agilent Technologies) and then transfected into E. coli YG6020 expressing Cre-recombinase, generating a 6.4 kb plasmid carrying the gpt and chloramphenicol acetyltransferase genes. These bacteria were cultured on selective media containing chloramphenicol (25 μg/ml, Sigma-Aldrich) and 6-TG (25 μg/ml, Sigma-Aldrich) or chloramphenicol alone. 6-TG resistance was confirmed by regrowth of colonies on plates containing chloramphenicol and 6-TG. The mutant frequency of each group was calculated (ratio of total 6-TG-resistant colonies to the average of chloramphenicol resistant colonies). The samples were processed and analyzed in a blinded fashion.
# In this study, the gptΔ assay was performed on several tissues isolated from the mouse experiments. Specifically, the liver, kidneys, and lungs were collected at ten weeks following the second NDMA injection, flash frozen in liquid nitrogen, and stored at −80°C until analysis. Genomic DNA was extracted from ∼25 mg of liver tissue, one kidney, and whole lungs using the RecoverEase DNA Isolation Kit (Agilent Technologies).
# mouse genome = assay: Duplex sequencing, high-resolution mutational spectra and pLOGO of liver and lung of NDMA-treated wild-type mice; type: in vivo, gptΔ C57BL/6J mice
# Procedure: as §1
# To determine the identity of mutations and the sequence contexts in which they occur, we utilized a form of error-corrected sequencing called duplex sequencing (DS). Previously, we described how DS can be used directly on genomic samples derived from the gptΔ mouse to yield high-resolution mutational spectra in an unbiased (unselected) manner ([49]). Unlike the traditional gptΔ assay, DS evaluates the mutations throughout the entire 6382 bp transgenic region (which contains the gpt gene), without the need for a phenotypic selection. In the present work, 6.4 kb gpt-containing plasmids from gptΔ mouse livers and cell culture were isolated using a Miniprep Kit (Qiagen) following instructions of the manufacturer. Approximately 6 μg of plasmid DNA was diluted in 1× TE buffer-low EDTA, pH 8 (Thermo Scientific), transferred to a microTUBE AFA Fiber Pre-Slit Snap-Cap (Covaris) and sonicated using a Covaris E220 Focused-ultrasonicator. The following program was used to obtain 300–350 bp fragments: peak incident power = 140 W, duty factor = 10%, cycles per burst = 200, treatment time = 80 s, temperature = 4–7°C. DS libraries for gptΔ C57BL/6J mice and MEFs were prepared using the NEBNext Ultra II DNA Library Prep (E7103, NEB) or as described in Chawanthayatham et al. ([49]) and sequenced on a NextSeq500 or NovaSeq 6000 Illumina platform by using a 150 bp paired-end protocol (MIT BioMicro Center). DS libraries for the gptΔ mouse lungs and Mgmt^−/− mice were prepared using an input of 1 μg or 500 ng genomic DNA, respectively, using a TwinStrand Biosciences, Inc. Mouse Mutagenesis Kit according to the manufacturer's protocol. This kit uses probes that hybridize to 20 genomic regions, each 2.4 kb long. The genomic coordinates are provided in Supplementary Table S1. These probes were purposely selected to map in intronic and intergenic regions, to avoid selection bias. The libraries were sequenced on an Illumina NovaSeq 6000 DNA sequencer on an S4 flow cell using a 150 bp paired-end protocol (MIT BioMicro Center).
# For each sample, the two fastq files generated by the Illumina sequencer were converted into an unaligned bam file, using Picard Tools. The resulting bam file was processed using UnifiedConsensusMaker.py (version 3.0) as available from the Kennedy Lab at University of Washington (https://github.com/Kennedy-Lab-UW/Duplex-Sequencing). Briefly, this program queries the molecular tags on each read and assembles them into families (strands with the same tag). These are subsequently collapsed into single-strand consensus sequences (SSCS). Then, the software identifies the SSCS corresponding to the complementary strand; these are grouped together as a double-strand consensus sequence (DCS). Unpaired SSCSs were flagged and ignored for the rest of the analysis. Sequence information was accepted only when the information from the two complementary DNA strands was in perfect agreement. The DCSs (as fastq files) were subsequently aligned to the target region (6382 nt in the λ-EG10 genome) using Burrows-Wheeler aligner. Unmapped reads were filtered out. Finally, the properly aligned DCS reads were trimmed (bases 1–8 and 120–137) and collapsed into a pileup file using SamTools. […]
# [3] = C at -6 relative to G→A mutation, liver, WT mice
compound,measurement,setting,value
"CN(C)N=O [NDMA, N-nitrosodimethylamine]",IARC classification,human,probable (Group 2A) human carcinogen
same,"enhanced mutant frequency in Mgmt−/− vs wild-type mice, females",gpt reporter gene [1]; females,3 fold
same,"enhanced mutant frequency in Mgmt−/− vs wild-type mice, males",gpt reporter gene [1]; males,4 fold
same,"elevated mutation frequency, kidney","gpt reporter gene [2]; kidney, 10 weeks after neonatal NDMA 10.5 mg/kg total i.p., vs controls",~2 fold
same,"change in mutant frequencies, kidney, males and females","gpt reporter gene [2]; kidneys vs controls, only males significantly increased (P = 0.0079)",approximate doubling
same,"elevated mutation frequency, liver","gpt reporter gene [2]; liver, 10 weeks after neonatal NDMA 10.5 mg/kg total i.p., vs controls",~35 fold
same,"increase in mutant frequency, liver, females","gpt reporter gene [2]; livers of females vs controls, 10 weeks post-exposure, P = 0.0079",~45 fold
same,"increase in mutant frequency, liver, males","gpt reporter gene [2]; livers of males vs controls, 10 weeks post-exposure, P = 0.0079",~30 fold
same,"elevated mutation frequency, lung","gpt reporter gene [2]; lung, 10 weeks after neonatal NDMA 10.5 mg/kg total i.p., vs controls",~4 fold and > 4 fold
same,pLOGO Frequency (%),"mouse genome; A at 1, lung, WT mice",32.2%
same,pLOGO Value (log-odds binomial probability),"mouse genome; A at 1, lung, WT mice",5.89
same,pLOGO Frequency (%),"mouse genome; A at 2, lung, WT mice",32.0%
same,pLOGO Value (log-odds binomial probability),"mouse genome; A at 2, lung, WT mice",4.51
same,pLOGO Frequency (%),"mouse genome; A at 3, liver, WT mice",28.4%
same,pLOGO Value (log-odds binomial probability),"mouse genome; A at 3, liver, WT mice",4.00
same,pLOGO Frequency (%),"mouse genome; A at -1, liver, WT mice",30.9%
same,pLOGO Value (log-odds binomial probability),"mouse genome; A at -1, liver, WT mice",52.74
same,pLOGO Frequency (%),"mouse genome; A at -1, lung, WT mice",45.9%
same,pLOGO Value (log-odds binomial probability),"mouse genome; A at -1, lung, WT mice",37.22
same,pLOGO Frequency (%),"mouse genome; A at -2, lung, WT mice",34.3%
same,pLOGO Value (log-odds binomial probability),"mouse genome; A at -2, lung, WT mice",6.29
same,pLOGO Frequency (%),"mouse genome; C at 1, liver, WT mice",38.4%
same,pLOGO Value (log-odds binomial probability),"mouse genome; C at 1, liver, WT mice",27.34
same,pLOGO Frequency (%),"mouse genome; C at 4, liver, WT mice",26.0%
same,pLOGO Value (log-odds binomial probability),"mouse genome; C at 4, liver, WT mice",6.07
same,pLOGO Frequency (%),"mouse genome; C at -3, liver, WT mice",31.4%
same,pLOGO Value (log-odds binomial probability),"mouse genome; C at -3, liver, WT mice",22.96
same,pLOGO Frequency (%),"mouse genome; C at -5, liver, WT mice",26.7%
same,pLOGO Value (log-odds binomial probability),"mouse genome; C at -5, liver, WT mice",4.79
same,pLOGO Frequency (%),mouse genome; [3],28.0%
same,pLOGO Value (log-odds binomial probability),mouse genome; [3],3.68
same,pLOGO Frequency (%),"mouse genome; G at -1, liver, WT mice",47.4%
same,pLOGO Value (log-odds binomial probability),"mouse genome; G at -1, liver, WT mice",193.23
same,pLOGO Frequency (%),"mouse genome; G at -1, lung, WT mice",39.2%
same,pLOGO Value (log-odds binomial probability),"mouse genome; G at -1, lung, WT mice",64.57
same,pLOGO Frequency (%),"mouse genome; T at 1, liver, WT mice",23.8%
same,pLOGO Value (log-odds binomial probability),"mouse genome; T at 1, liver, WT mice",4.97
same,pLOGO Frequency (%),"mouse genome; T at 1, lung, WT mice",29.1%
same,pLOGO Value (log-odds binomial probability),"mouse genome; T at 1, lung, WT mice",10.31
same,sequence context dependency of GC→AT mutations,"mouse genome; WT mice, Pu = purine, N = any base",5’-PuGN-3’
same,"AT→GC mutations, proportion of total number of mutations","mouse genome; WT mice, after background subtraction",4.6%
same,dominant mutation type of mutational spectrum,"mouse genome; liver and lung of WT mice, 10 weeks post NDMA",GC→AT transition mutations
